From patent US8163718B2, “Nucleoside analogues containing phosphonate or phosphonamide groups” (Gilead Sciences, Inc., priority 2008, dated 2012) come the findings set out here.

Assay in all cases: Cytostatic cell culture assay (GI50), SRB
Type in all cases: cell-based

One test deals with A549. As to conditions: Homo sapiens, A549, 120 h; 5 days incubation. Put shortly: (§1)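 In this 5-day cytostatic SRB assay at 37 °C, cells attached overnight before 5-fold compound dilutions were added. Plates fixed on day 0 and day 5 were stained with SRB, and absorbance was read at 500 nm. Growth was normalized against the day-0 and untreated controls to fit GI50.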
In a further test the test system is BT-549. The settings on record: Homo sapiens, BT-549, 120 h; 5 days incubation. In short, it runs like this:
as §1

For another test, the system named is Du-145. As to conditions: Homo sapiens, DU-145, 120 h; 5 days incubation. Put shortly:
as §1

A further test has as its system HCT-116. The settings on record: Homo sapiens, HCT-116, 120 h; 5 days incubation. Put shortly: as §1
Another test concerns HCT-15. The settings on record: Homo sapiens, HCT-15, 120 h; 5 days incubation. Put shortly: as §1
The next test has as its system Hs-578. As to conditions: Hs578, 120 h; 5 days incubation. Put shortly:
as §1

Another test concerns NCI-H23. As to conditions: Homo sapiens, NCI-H23, 120 h; 5 days incubation. Put shortly:
as §1

The test system of the next test is PC3. As to conditions: Homo sapiens, PC-3, 120 h; 5 days incubation. In short, it runs like this:
as §1

`CCCOc1nc(N)nc2c1ncn2CCOCP(=O)(N1CCC[C@H]1C(=O)OCC)N1CCC[C@H]1C(=O)OCC` [Example 21]: the GI50 in the test on A549 stood at 128 nM; in the test with BT-549, 33 nM; with Du-145, 2 nM; with HCT-116, 41 nM; in the test with HCT-15, 6700 nM; in the test on Hs-578, 17 nM. Also, the GI50 in the test with NCI-H23 is 2 nM; in the test on PC3, 26 nM.
